The record followed here is patent publication US4151300A, “Acetohydroxamic acids” (Laboratoire L. Lafon, priority 1976, dated 1979).

Data set [1] relates to mice. Briefly: spontaneous motility (actimeter). It is filed as in vivo. The conditions noted are these: i.p. On the procedure:
(§1) The following text summarises a part of the results of the tests which were carried out with the products according to the invention, these products (unless otherwise stated) being administered intraperitoneally, in suspension in a gum solution (gum arabic), in a volume of 20 ml/kg in the case of mice and of 5 ml/kg in the case of rats.
Thirty minutes after having been given CRL 40,373, the mice (6 per dose, 12 comparison animals) are placed in an actimeter, where their motility is recorded for half an hour.
Thirty minutes after having been given CRL 40,385, the mice are placed in actimeters where their motility is recorded for half an hour.

Data set [2] has as its system mice. Kind of data set: electrical shock (convulsing effects). It counts as in vivo, mice (EVIC CEBA strain). The conditions noted are these: mice, i.p. Here is the method: as §1
(§2) The test is carried out on batches of 10 sensitive mice (EVIC CEBA strain), 30 minutes after the administration of CRL 40,373.
(§3) Batches of 10 mice are subjected to the test thirty minutes after having received CRL 40,385.

Data set [3] concerns mice. Kind of data set: interaction with oxotremorine (temperature, trembling, peripheral cholinergic symptoms). It is filed as in vivo. The following applies: mice, i.p.
The test system of data set [4] is mice. Briefly: motility reduced by habituation to a cage (residual motility). It counts as in vivo. The following applies: i.p. On the procedure:
as §1
Mice which have remained for 18 hours in the actimeters are given CRL 40,373. They are immediately replaced in their cages and, after a period of half an hour, their motility is recorded for 30 minutes (6 animals per dose, 12 comparison animals).
After remaining for 18 hours in the actimeters, the mice receive CRL 40,385. Immediately afterwards they are replaced in their cage and half an hour afterwards the recording of the motility starts and is continued for 30 minutes.

The test system of data set [5] is mice. Briefly: motility reduced by hypoxia treatment (motor recovery). The following applies: mice, i.p. It is filed as in vivo.
Data set [6] deals with mice. Briefly: toxicity (isolated mice, intraperitoneal). It counts as in vivo. The conditions noted are these: for LD-O (maximum non-lethal dose) / time to death: mice. On the procedure: as §1
The test system of the next data set is central nervous system. Kind of data set: psychopharmacological study / behaviour. It counts as in vivo, mice.
Data set [7] deals with mice. Kind of data set: traction (motor incoordination). It is filed as in vivo, mice (EVIC CEBA strain). The following applies: i.p.
The subject of data set [8] is mice. Briefly: interaction with reserpine (hypothermia, ptosis). It counts as in vivo. The conditions noted are these: i.p.
In data set [9] the test system is rats. Kind of data set: interaction with amphetamine (stereotypies in rats). It counts as in vivo. On the procedure: as §1
30 minutes after the administration of CRL 40,373, amphetamine is injected intraperitoneally at a dose of 2 mg/kg.
Thirty minutes after the administration of CRL 40,385 the rats are given an intraperitoneal injection of 2 mg/kg of amphetamine (6 animals per dose).

Data set [10] deals with mice. Briefly: inter-group aggressiveness (number of fights). The conditions noted are these: mice, i.p., large/high dose. It counts as in vivo. Here is the method: as §1
After three weeks' residence in each of the halves of a cage divided by an opaque partition, the mice receive CRL 40,373 thirty minutes before being brought together by withdrawing the partition.
After 18 days' residence on either side of a partition separating their cage in the middle, groups of 3 mice receive CRL 40,385 and are brought together half an hour later by withdrawing the partition, and the number of fights which take place in the course of 15 minutes is noted.

In data set [11] the test system is rats. Briefly: interaction with apomorphine (stereotype behaviour in rats). It is filed as in vivo. Here is the method:
as §1
Batches of six rats are each given a subcutaneous injection of apomorphine (0.5 mg/kg) 30 minutes after the administration of CRL 40,373.
Batches of 6 rats are given a subcutaneous injection of 0.5 mg/kg of apomorphine 30 minutes after the administration of CRL 40,385.

Another data set has as its system man. Briefly: clinical use in man. It counts as in vivo. The following applies: tablet 100 mg, 1 to 3 tablets per day.
In data set [12] the test system is mice. Briefly: four-plate test. It is filed as in vivo, mice (EVIC CEBA strain). The following applies: mice, i.p. On the procedure:
as §1, §2, §3

Data set [13] has as its system rats. Briefly: prolonged conditioning to take avoiding action (shuttle box). It counts as in vivo. The text has this:
Rats placed in a shuttle box are conditioned to avoid an electric shock by changing sides. The shock is preceded by a sound and light stimulus lasting 3 seconds, which ceases when sides are changed or after 8 seconds. The sequence is repeated every 20 seconds. Animals conditioned for several tens of minutes show a percentage of avoidance which is close to 100%. They continue to be subjected to the stimulus […] and gradually they reach a state in which they are no longer able to change sides during the period of 3 seconds during which no shock is delivered.
As a first approximation, such an effect can be likened to a resumption of conditioned activity in a tired animal.
Rats placed in a "shuttle box" are conditioned to avoid an electric shock lasting 5 seconds, by changing sides. The shock is preceded, for 3 seconds, by a sound and light stimulus which ceases when the rat changes side, or at the end of 8 seconds. The sequence repeats every 20 seconds. […] They continue to be subjected to the stimulus every 20 seconds and gradually they no longer succeed in avoiding the shock.
CRL 40,438 is then administered and any resumption of the avoidance movements is followed until the effect ceases.

Each structure is given as a SMILES string. “Also recorded” adds a separate entry of the source. Read-outs that look alike come from different tables or passages of the source.

For the molecule `O=C(CCN1c2ccccc2Sc2ccccc21)N[O-].[Na+]`, the motor activity result in the data set with mice [1] (mice, from 8 mg/kg upwards) is listed as “reduction of the motor activity”. In addition, the “lethal effects of the electric shock” value in the data set with mice [2] (high doses (32 and 128 mg/kg)) is given as “increase in the lethal effects of the electric shock”. For the same molecule, in the data set on mice [3], the oxotremorine-induced trembling result is “does not alter the intensity or duration of the trembling movements induced by oxotremorine” and the “temperature (oxotremorine-induced hypothermia)” value is reported as “contributes its effect to the hypothermia-inducing action of oxotremorine”. For the same molecule, in the data set on mice [4], the “motility reduced by habituation to the cage” value (“motility reduced” for short) is on record as “not improved”. Further, in the data set on mice [5], the “motor recovery after hypoxia/anoxia by pressure reduction” value was “not improved”. Further, the “LD-O (maximum non-lethal dose)” value with mice [6] (i.p.) is recorded as “greater than 256 mg/kg”. In the data set with mice [6] (i.p., 512 mg/kg), this molecule came in with a time to death of 24 h. This molecule also returned a time to death in the data set with mice [6] (i.p., 1,024 mg/kg) of 0.583 h. In addition, the “body temperature effect (product alone)” value with central nervous system (mouse, in vivo) is “hypothermia-inducing agent”. Moreover, in the data set on mice [7] (mice, high doses (32 and 128 mg/kg)), the motor incapacity entry is recorded as “substantial motor incapacity”. In addition, the reserpine-induced ptosis entry with mice [8] (128 and 32 mg/kg) is recorded as “aggravates the ptosis induced by reserpine”. The reserpine-induced hypothermia result in the data set with mice [8] (high dose) was “aggravates the hypothermia induced by reserpine”.
In the case of `CCCCC(CCCC)(CCCC)C(=O)NO` [CRL 40,373, Tributylacetohydroxamic acid], the spontaneous motility result with mice [1] (mice, 128 and 512 mg/kg) is listed as “causes a reduction in the (spontaneous) motor activity of the mice”. The “convulsing effects of the electric shock” value with mice [2] is “does not modify the convulsing effects of the electric shock”. The oxotremorine-induced trembling entry in the data set on mice [3] was “no significant influence on the trembling caused by oxotremorine”. Further, in the data set with mice [3] (128 and 512 mg/kg, oxotremorine 0.5 mg/kg i.p.), the “temperature (oxotremorine-induced hypothermia)” value was “exerts a hypothermia-inducing effect and aggravates the lowering of the temperature produced by oxotremorine”. Besides, the “peripheral cholinergic symptoms of oxotremorine” value in the data set with mice [3] (high doses (128 and 512 mg/kg)) is “increases the hypersalivation and hyperlacrymation produced by oxotremorine”. The “motility reduced” value in the data set with mice [4] was “does not cause a resumption of the exploring activity of mice accustomed to their environment”. The amphetamine-induced stereotypies entry in the data set on rats [9] (rats, i.p.) is “inhibits the amphetamine-induced stereotypies, this inhibition being proportional to the doses”. Further, the “motor recovery after hypoxia/anoxia by pressure reduction” value in the data set on mice [5] is listed as “does not produce an improvement in the motor recovery of mice”. Moreover, in the data set on mice [6] (isolated mice, i.p., 64, 128, 256, 512 and 1,024 mg/kg), the mortality entry was “No mortality whatsoever”. The aggressiveness entry in the data set with mice [10] is on record as “reduces the number of fights”. Further, the “psychopharmacological profile / conclusion” value with central nervous system (mouse, in vivo) is given as “sedative agent”. The “motor incoordination / incapacity” value in the data set with mice [7] is “does not bring about any major motor incoordination”. The apomorphine-induced stereotypies entry in the data set on rats [11] (rats, i.p.) was “not influenced”. The clinical result in the data set with man was “used clinically with success as a sedative”. Also, in the data set with mice [8], the reserpine-induced hypothermia entry is given as “not modified” and the reserpine-induced ptosis entry was “not modified”. For the same molecule, the “number of incorrect moves (four-plate test)” value in the data set with mice [12] was “does not cause an increase in the number of incorrect moves”.
For the molecule `CC(C(=O)NO)C(=O)N(c1ccccc1)c1ccccc1` (centres unmarked) [CRL 40,438, 2-(N,N-Diphenylcarbamoyl)-propionohydroxamic acid], the spontaneous motility entry in the data set on mice [1] is listed as “moderate increase in the spontaneous motor activity”. Further, the oxotremorine-induced trembling result with mice [3] was “moderately opposes hypothermia and ptosis induced by reserpine, and the trembling movements caused by oxotremorine”. For the same molecule, in the data set with mice [4], the “motility reduced” value is on record as “very marked stimulant effect where the motility has been reduced by habituation to the cage”. Also, in the data set on rats [9] (high dose), the amphetamine-induced stereotypies result was “boosting of the stereotypies induced by apomorphine and by amphetamine”. Besides, the “LD-O (maximum non-lethal dose)” value in the data set with mice [6] (i.p.) was “greater than 1,024 mg/kg”. In addition, in the data set with rats [13], the “resumption of avoiding actions (prolonged avoidance test)” value is on record as “an effect of the "anti-fatigue" type”. Moreover, in the data set on rats [13] (i.p., 64, 128 and 256 mg/kg), the “resumption of avoiding actions (prolonged avoidance test)” value is “causes a resumption of the avoidance behaviour”. In the data set on mice [10], the aggressiveness result is listed as “reduces the aggressive behaviour of mice”. Moreover, the “stereotype movements (product alone)” value in the data set with central nervous system (high dose) is on record as “presence, at a high dose, of stereotype movements”. Besides, the reactivity result with central nervous system (mice) is listed as “hyper-reactivity in mice”. Moreover, in the data set with central nervous system (mouse, in vivo), the “psychopharmacological profile / conclusion” value is on record as “effects of the excitation-inducing type; also recorded: activity of the anti-depressant type or of the psychostimulant type”. Moreover, the apomorphine-induced stereotypies result in the data set on rats [11] (high dose) is “boosting of the stereotypies induced by apomorphine”. Further, in the data set on mice [8], the reserpine-induced hypothermia entry was “moderately opposes hypothermia”; the reserpine-induced ptosis result is “moderately opposes hypothermia and ptosis induced by reserpine”.
